Some results are limits rather than exact numbers.

The values below come from paper PMC11796312, “Multifunctional, Fluorene‐Based Modulator of Cholinergic and GABAergic Neurotransmission as a Novel Drug Candidate for Palliative Treatment of Alzheimer's Disease” (Angewandte Chemie (International Ed. in English), 2024).

The target of one experiment is T1, eqBuChE (Equus caballus, UniProt P81908).
T1 construct: purchased Sigma-Aldrich
Put plainly: biochemical. The following applies: means±SEM of at least three experiments.

Experiment [1] deals with T2, human butyrylcholinesterase (hBuChE) (Homo sapiens, UniProt P06276).
T2 construct: from human plasma was from Vivonics (Bedford, MA, USA); purchased Vivonics (Bedford, MA, USA); host or cells: human plasma
The experiment in a line: biochemical. To be noted: for IC50: means±SEM of at least three experiments; for inhibition at 1 µM: inhibitor concentration 1 μM, read-out: hBuChE % inh.

The target in a further experiment is T3, eeAChE (Electrophorus electricus, UniProt O42275).
T3 construct: purchased Sigma-Aldrich
The experiment in a line: Cholinesterase inhibition, Ellman's protocol, eeAChE. To be noted: read-out: eeAChE % inh. It is filed as biochemical.

Experiment [2] concerns the target T4, mGAT1 (Mus musculus, UniProt P31648). Put plainly: [3H]GABA uptake assay, mGAT1. To be noted: GABA uptake assay; read-out: mGAT1 IC50. The class given is cell-based.
The target of another experiment is T5, mGAT2 (Mus musculus, UniProt P31651).
T5 sequence (P31651 1-614): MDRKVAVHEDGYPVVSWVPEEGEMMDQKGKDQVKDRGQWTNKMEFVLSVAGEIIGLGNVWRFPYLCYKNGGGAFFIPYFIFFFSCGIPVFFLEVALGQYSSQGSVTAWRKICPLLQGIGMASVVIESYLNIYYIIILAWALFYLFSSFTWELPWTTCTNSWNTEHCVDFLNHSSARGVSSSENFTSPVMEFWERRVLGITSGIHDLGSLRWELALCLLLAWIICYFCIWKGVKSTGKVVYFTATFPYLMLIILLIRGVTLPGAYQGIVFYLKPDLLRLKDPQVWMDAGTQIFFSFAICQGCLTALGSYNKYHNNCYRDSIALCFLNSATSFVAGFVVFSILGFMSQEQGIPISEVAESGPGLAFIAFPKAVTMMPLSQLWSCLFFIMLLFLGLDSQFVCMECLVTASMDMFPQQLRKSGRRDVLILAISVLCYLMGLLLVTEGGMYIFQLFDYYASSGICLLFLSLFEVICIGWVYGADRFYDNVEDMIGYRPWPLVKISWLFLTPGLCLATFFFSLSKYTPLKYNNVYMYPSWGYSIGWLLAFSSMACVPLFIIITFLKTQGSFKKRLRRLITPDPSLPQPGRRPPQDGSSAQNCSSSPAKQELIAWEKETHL
Put plainly: [3H]GABA uptake assay, mGAT2. The class given is cell-based. The following applies: GABA uptake assay; read-out: mGAT2 IC50.

Another experiment addresses T6, mGAT3 (Mus musculus, UniProt P31649).
T6 sequence (P31649 1-602): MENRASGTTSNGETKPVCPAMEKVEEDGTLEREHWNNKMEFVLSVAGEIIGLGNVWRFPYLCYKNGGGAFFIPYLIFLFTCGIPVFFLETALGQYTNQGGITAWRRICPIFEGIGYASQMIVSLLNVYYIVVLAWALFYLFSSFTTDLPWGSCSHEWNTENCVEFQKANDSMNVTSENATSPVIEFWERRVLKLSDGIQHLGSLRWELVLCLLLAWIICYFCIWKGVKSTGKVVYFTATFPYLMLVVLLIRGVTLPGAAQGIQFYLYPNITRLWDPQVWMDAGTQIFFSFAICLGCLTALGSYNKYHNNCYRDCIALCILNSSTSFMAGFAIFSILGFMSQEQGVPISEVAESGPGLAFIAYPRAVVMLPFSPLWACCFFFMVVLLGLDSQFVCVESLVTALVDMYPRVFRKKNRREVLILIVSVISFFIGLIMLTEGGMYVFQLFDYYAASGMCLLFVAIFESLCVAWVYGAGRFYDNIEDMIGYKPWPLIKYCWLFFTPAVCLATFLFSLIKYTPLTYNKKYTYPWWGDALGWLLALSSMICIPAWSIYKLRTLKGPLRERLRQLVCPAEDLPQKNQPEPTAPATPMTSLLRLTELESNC
Put plainly: [3H]GABA uptake assay, mGAT3. It is filed as cell-based. The following applies: GABA uptake assay; read-out: mGAT3 IC50.

The next experiment concerns the target T7, mGAT4 (Mus musculus, UniProt P31650).
T7 sequence (P31650 1-627): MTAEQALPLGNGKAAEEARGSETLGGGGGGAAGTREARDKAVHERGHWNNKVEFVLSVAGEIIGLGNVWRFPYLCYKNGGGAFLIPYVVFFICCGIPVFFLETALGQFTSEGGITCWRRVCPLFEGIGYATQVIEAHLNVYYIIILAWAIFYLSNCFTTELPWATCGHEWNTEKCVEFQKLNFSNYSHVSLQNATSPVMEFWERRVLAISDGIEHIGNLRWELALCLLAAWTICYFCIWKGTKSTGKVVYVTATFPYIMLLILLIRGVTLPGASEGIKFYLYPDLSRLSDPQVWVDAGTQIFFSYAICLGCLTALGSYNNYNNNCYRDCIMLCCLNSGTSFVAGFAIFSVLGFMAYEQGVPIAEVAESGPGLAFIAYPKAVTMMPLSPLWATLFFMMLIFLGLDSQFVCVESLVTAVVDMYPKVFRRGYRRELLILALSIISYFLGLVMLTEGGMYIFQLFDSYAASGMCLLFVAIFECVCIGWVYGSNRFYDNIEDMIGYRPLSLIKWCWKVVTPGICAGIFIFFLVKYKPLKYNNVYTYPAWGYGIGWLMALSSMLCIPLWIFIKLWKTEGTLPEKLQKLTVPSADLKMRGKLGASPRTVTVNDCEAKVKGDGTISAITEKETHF
Put plainly: [3H]GABA uptake assay, mGAT4. It is filed as cell-based. The following applies: GABA uptake assay; mGAT4 corresponds to GAT3; read-out: mGAT4 IC50.

Experiment [3] deals with T4, mGAT1. The experiment in a line: MS Binding Assay with NO 711 as marker. To be noted: for Ki: MS Binding Assay, NO 711 marker, read-out: pKi ± SEM toward mGAT1 (converted); for percent of remaining NO711 binding, mGAT1: 100 μM inhibitor.
The target of experiment [4] is T8, human serotonin 5-HT6 receptor (Homo sapiens, UniProt P50406).
T8 construct: host or cells: 1321N1
Put plainly: cAMP 5-HT6 functional assay. The class given is cell-based. The following applies: % of maximal antagonist response (SB258585 10^-5M); 22 nM serotonin.
Protocol: Functional assays for 5-HT6 receptor
Test compounds were dissolved in dimethyl sulfoxide (DMSO) at a concentration of 10 mM.
Serial dilutions were prepared in a 96-well microplate in assay buffer, and 8 concentrations
were tested. For the 5-HT6, adenylyl cyclase activity was monitored using cryopreserved
cells were resuspended in stimulation buffer (HBSS, 5 mM HEPES, 0.5 IBMX, and 0.1%
BSA at pH 7.4) at 2x10^5 cells/ml. The same volume (10 μl) of cell suspension was added to
the tested compounds. Samples were loaded onto a white opaque half-area 96-well
reference agonist for the 5-HT6 receptor. The agonist and antagonist were added
simultaneously. Cell stimulation was performed for 30 minutes at room temperature. After
incubation, cAMP measurements were performed with homogeneous TR-FRET immunoassay
using the LANCE Ultra cAMP kit (PerkinElmer, USA). The volume of 10 μl of EucAMP
Tracer Working Solution and 10 μl of ULight-anti-cAMP Tracer Working Solution were
added, mixed, and incubated for 1 h. The TR-FRET signal was read on an EnVision
microplate reader (PerkinElmer, USA). IC 50 and EC 50 were determined by nonlinear
regression analysis using GraphPad Prism 9.0 software.

T2 sequence (P06276 29-602): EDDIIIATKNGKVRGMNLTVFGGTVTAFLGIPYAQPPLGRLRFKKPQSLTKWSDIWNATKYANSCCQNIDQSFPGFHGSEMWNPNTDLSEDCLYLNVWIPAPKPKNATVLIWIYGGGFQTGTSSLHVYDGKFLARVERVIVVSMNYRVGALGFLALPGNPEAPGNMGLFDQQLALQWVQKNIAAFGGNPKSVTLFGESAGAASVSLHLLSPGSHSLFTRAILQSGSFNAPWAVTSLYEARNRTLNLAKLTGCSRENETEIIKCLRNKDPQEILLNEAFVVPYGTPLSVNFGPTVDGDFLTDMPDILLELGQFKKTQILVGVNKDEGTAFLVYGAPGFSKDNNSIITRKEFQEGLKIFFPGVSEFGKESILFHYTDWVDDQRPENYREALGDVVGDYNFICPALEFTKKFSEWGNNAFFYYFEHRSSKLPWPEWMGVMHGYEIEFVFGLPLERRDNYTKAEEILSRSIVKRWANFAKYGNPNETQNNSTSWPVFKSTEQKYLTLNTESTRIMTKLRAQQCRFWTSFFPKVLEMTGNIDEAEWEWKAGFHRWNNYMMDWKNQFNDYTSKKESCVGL
T1 sequence (P81908 whole entry): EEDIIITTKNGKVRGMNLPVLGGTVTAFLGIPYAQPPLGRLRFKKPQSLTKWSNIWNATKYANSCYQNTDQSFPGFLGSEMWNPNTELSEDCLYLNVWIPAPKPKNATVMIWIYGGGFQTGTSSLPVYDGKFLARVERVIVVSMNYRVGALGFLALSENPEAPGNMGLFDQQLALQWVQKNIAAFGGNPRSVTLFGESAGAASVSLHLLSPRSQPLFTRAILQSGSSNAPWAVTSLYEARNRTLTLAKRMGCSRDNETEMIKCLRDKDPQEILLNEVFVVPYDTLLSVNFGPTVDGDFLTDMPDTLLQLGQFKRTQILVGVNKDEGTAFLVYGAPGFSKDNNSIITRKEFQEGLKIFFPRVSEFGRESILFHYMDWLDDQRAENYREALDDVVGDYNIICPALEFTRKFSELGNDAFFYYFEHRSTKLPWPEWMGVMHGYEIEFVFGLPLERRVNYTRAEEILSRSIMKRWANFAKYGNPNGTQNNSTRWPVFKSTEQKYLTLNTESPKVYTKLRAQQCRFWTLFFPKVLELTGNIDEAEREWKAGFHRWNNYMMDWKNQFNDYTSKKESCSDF
T3 sequence (O42275 24-633): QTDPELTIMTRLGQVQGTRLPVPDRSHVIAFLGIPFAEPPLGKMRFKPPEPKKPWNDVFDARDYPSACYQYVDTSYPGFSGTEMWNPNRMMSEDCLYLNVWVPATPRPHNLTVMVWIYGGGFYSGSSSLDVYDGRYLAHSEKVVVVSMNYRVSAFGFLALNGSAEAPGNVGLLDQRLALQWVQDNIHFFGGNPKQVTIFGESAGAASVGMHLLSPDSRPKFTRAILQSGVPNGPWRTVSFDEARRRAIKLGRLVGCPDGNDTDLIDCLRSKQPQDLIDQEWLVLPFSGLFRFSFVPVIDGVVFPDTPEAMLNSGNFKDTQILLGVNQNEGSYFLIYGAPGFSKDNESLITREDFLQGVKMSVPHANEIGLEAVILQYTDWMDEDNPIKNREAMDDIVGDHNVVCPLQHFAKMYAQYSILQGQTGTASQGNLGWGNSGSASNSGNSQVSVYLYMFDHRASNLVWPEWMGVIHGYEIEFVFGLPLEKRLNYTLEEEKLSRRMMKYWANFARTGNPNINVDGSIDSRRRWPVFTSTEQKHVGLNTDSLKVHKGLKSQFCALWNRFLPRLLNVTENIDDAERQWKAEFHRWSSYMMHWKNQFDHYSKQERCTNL
T8 sequence (P50406 whole entry): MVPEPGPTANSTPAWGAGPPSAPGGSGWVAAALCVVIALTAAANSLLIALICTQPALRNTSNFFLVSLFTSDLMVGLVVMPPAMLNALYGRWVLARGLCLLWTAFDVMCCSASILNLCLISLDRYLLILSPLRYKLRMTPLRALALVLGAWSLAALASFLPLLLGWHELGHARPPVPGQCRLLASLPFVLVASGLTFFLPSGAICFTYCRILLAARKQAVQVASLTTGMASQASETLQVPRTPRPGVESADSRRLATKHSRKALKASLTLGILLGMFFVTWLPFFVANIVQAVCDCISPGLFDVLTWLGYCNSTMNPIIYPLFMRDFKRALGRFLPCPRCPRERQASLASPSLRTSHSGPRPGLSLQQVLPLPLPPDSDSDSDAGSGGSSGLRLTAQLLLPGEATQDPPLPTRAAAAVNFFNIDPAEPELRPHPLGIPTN
Protocol for eeAChE: In vitro pharmacological assays.
The in vitro inhibitory activity toward cholinesterases (eeAChE, eqBuChE,
The target compounds were tested for their inhibitory potency against cholinesterases using
Ellman’s protocol[32] modified for 96-well microplates.
The stock solutions of the
target compounds were prepared in DMSO and diluted with water, giving the desired final
concentrations. The enzymes were prepared as 5 U/mL aqueous stock solutions and diluted
(AChE or BuChE) were added to the reaction mixture in the wells, containing 25 μL of the
target compound (in case of blank samples – water or water/DMSO mixture), 200 μL of 0.1
M phosphate buffer (pH = 8.0) and 20 μL of 5,5'-dithiobis-(2-nitrobenzoic acid) DTNB
All those reagents were preincubated for 5 min at 25 °C for the reactions with the
animal enzymes (eeAChE or eqBuChe) and 36 °C for the human enzyme ( hBuChE) tests. The
enzymatic reaction was initiated by the addition of 20 μL of substrate acetylthiocholine iodide
using the EnSpire multimode microplate reader (PerkinElmer, Waltham, MA, USA). Target
compounds were tested at the screening concentrations of 10 μM or 1 µM for inhibitory
potencies towards animal cholinesterases or human enzyme, respectively. Percent of enzyme
inhibition was calculated based on the formula 100 -(S/B)x100, where S and B were the
respective enzyme activities with and without the test compound, respectively. Compounds
with the enzyme inhibitory activities at 10 μM better than 50% ( eeAChE or eqBuChe) and at
were based on the absorbance measured at seven different inhibitor concentrations, then
percentages of enzymes’ inhibition were plotted against the applied inhibitor concentrations
using nonlinear regression (GraphPad Prism 9; GraphPad Software, San Diego, CA, USA).
All the experiments were performed in
a %inh. at an inhibitor concentration of 10 µM

Turning to `O[C@H](CNCc1ccccc1)[C@H](Cc1ccccc1)NC1c2ccccc2-c2ccccc21` [Compound 1], the IC50 on eqBuChE was found to be 0.63 ± 0.02 µM; in experiment [1] it was 0.2 µM; at mGAT1 [2] it was 11 µM; on mGAT2, 9.77 ± 1.82 µM; on mGAT3, 7.08 ± 1.15 µM; at mGAT4, 7.76 ± 1.99 µM. For the same molecule, the inhibition at 10 µM at eeAChE was less than 10%. In addition, the Ki on mGAT1 [3] is 49 µM.
As to `COc1ccccc1CNC[C@H](O)[C@H](Cc1ccccc1)NC1c2ccccc2-c2ccccc21` [Compound 2], the IC50 at eqBuChE stood at 0.28 ± 0.01 µM; in experiment [1], 0.27 ± 0.01 µM; on mGAT1 [2], 6.31 ± 1.02 µM; on mGAT2 it was 13.2 µM; on mGAT4 it was 6.17 ± 0.57 µM. For the same molecule, the inhibition at 10 µM at eeAChE was less than 10%. The Ki on mGAT1 [3] is 33.9 µM.
As for `COc1cccc(CNC[C@H](O)[C@H](Cc2ccccc2)NC2c3ccccc3-c3ccccc32)c1` [Compound 3], the IC50 against eqBuChE was 2.2 ± 0.1 µM; at mGAT1 [2], 7.41 ± 0.34 µM; on mGAT2, 12 µM; at mGAT4, 7.08 ± 0.49 µM. Also, in experiment [1], the inhibition at 1 µM amounted to 67.7%. Moreover, at eeAChE, the inhibition at 10 µM is less than 10%. Further, on mGAT1 [3], the Ki was 30.9 µM.
On to `CC(C)(C)c1cccc(CNC[C@@H](O)[C@H](Cc2ccccc2)NC2c3ccccc3-c3ccccc32)c1` [Compound 4], for which the IC50 was 0.69 ± 0.04 µM against eqBuChE, 14.8 µM on mGAT1 [2], 26.3 µM on mGAT2 and 8.91 ± 1.03 µM on mGAT3. For the same molecule, the inhibition at 1 µM in experiment [1] is 68%. Further, the inhibition at 10 µM on eeAChE is less than 10%. In addition, the “percent of remaining NO711 binding, mGAT1” value at mGAT1 [3] was 91%.
`O[C@@H](CNCC1CCCCC1)[C@H](Cc1ccccc1)NC1c2ccccc2-c2ccccc21` [Compound 5]: the IC50 was 0.96 ± 0.03 µM against eqBuChE, 10.7 µM at mGAT2 and 11.5 µM at mGAT3. In [1], the inhibition at 1 µM worked out at 76.5%. Also, the inhibition at 10 µM at eeAChE amounted to 19.9%. Further, the “percent of remaining NO711 binding, mGAT1” value on mGAT1 [3] came to 72%.
For `COc1ccc(NS(=O)(=O)c2ccc(I)cc2)cc1N1CCN(C)CC1` [SB258585, reference compound], the “5-HT6 antagonist mode E max %” value in experiment [4] came out at 100%.

The IC50 is the concentration at which inhibition is half-maximal.
